Patent publication US20060263802A1 (priority 2003, published 2006)

Key:
Format in all cases: binding
[1] = system: human monoclonal antibody CRJA
[2] = system: human monoclonal antibody CRJA; remark: listed apart in the source
[3] = system: human monoclonal antibody CRJB
[4] = system: human monoclonal antibody CR57
[5] = system: human monoclonal antibody CR57; remark: listed apart in the source
[6] = system: human monoclonal antibody CRJB; remark: listed apart in the source

| Sequence | Binding of CRJA to linear peptide (PEPSCAN-ELISA signal) [1] | Binding of CRJA (10 μg/ml) to looped/cyclic peptide (PEPSCAN-ELISA signal) [2] | Binding of CRJB to linear peptide (PEPSCAN-ELISA signal) [3] | Binding of CR57 to linear peptide (PEPSCAN-ELISA signal) [4] | Binding of CR57 (10 μg/ml) to looped/cyclic peptide (PEPSCAN-ELISA signal) [5] | Binding of CRJB (10 μg/ml) to looped/cyclic peptide (PEPSCAN-ELISA signal) [6] | Binding of CRJA (10 μg/ml) to looped/cyclic peptide (PEPSCAN-ELISA) [2] | Binding of CR57 (10 μg/ml) to looped/cyclic peptide (PEPSCAN-ELISA) [5] | Binding of CRJB (10 μg/ml) to looped/cyclic peptide (PEPSCAN-ELISA) [6] | Binding of human monoclonal antibody CRJA to linear peptide (PEPSCAN-ELISA signal) [1] | Binding of CRJA to looped/cyclic peptide (PEPSCAN-ELISA signal) [2] | Binding of human monoclonal antibody CRJB to linear peptide (PEPSCAN-ELISA signal) [3] | Binding of human monoclonal antibody CR57 to linear peptide (PEPSCAN-ELISA signal) [4] | Binding of CR57 to looped/cyclic peptide (PEPSCAN-ELISA signal) [5] | Binding of CRJB to looped/cyclic peptide (PEPSCAN-ELISA signal) [6] |
| --- | --- | --- | --- | --- | --- | --- | --- | --- | --- | --- | --- | --- | --- | --- | --- |
| NYTNFVGYVTTTFKR | 97 | 85 | 114 | 49 | 58 | 88 | – | – | – | – | – | – | – | – | – |
| PDACRAAYNWKMAGD | 93 | 96 | 124 | 61 | 97 | 76 | – | – | – | – | – | – | – | – | – |
| PDGNVLIPEMQSSLL | 99 | – | 129 | 87 | – | – | 112 | 110 | 108 | – | – | – | – | – | – |
| PDQLVNLHDFRSDEI | 43 | – | 106 | 35 | – | – | 46 | 70 | 73 | – | – | – | – | – | – |
| PDVHNQVSGVDLGLP | – | – | – | – | – | – | – | – | – | 107 | 115 | 129 | 106 | 106 | 104 |
| PDYRWLRTVKTTKES | 83 | 90 | 85 | 76 | 79 | 72 | – | – | – | – | – | – | – | – | – |
| PEMQSSLLQQHMELL | 79 | – | 133 | 62 | – | – | 78 | 72 | 82 | – | – | – | – | – | – |
| PENPRLGMSCDIFTN | 94 | 83 | 111 | 83 | 116 | 98 | – | – | – | – | – | – | – | – | – |
| PGFGKAYTIFNKTLM | 118 | – | 113 | 78 | – | – | 94 | 110 | 79 | – | – | – | – | – | – |
| PHVNGVFFNGIILGP | 117 | – | 173 | 93 | – | – | 107 | 112 | 134 | – | – | – | – | – | – |
| PIDIHHLSCPNNLVV | 39 | 38 | 93 | 46 | 50 | 70 | – | – | – | – | – | – | – | – | – |
| PIYTILDKLGPWSPI | 143 | 78 | 89 | 36 | 58 | 77 | – | – | – | – | – | – | – | – | – |
| PLADPSTVFKDGDEA | – | – | – | – | – | – | – | – | – | 84 | 97 | 125 | 99 | 148 | 97 |
| PLVHPLADPSTVFKD | 90 | – | 112 | 93 | – | – | 104 | 101 | 90 | – | – | – | – | – | – |
| PNNLVVEDEGCTNLS | 86 | 96 | 107 | 78 | 100 | 60 | – | – | – | – | – | – | – | – | – |
